Source: US20250296920A1, “FORMULATIONS COMPRISING N-SUBSTITUTED-DIOXOCYCLOBUTENYLAMINO-3-HYDROXY-PICOLINAMIDE COMPOUNDS AND USES THEREOF” (Pfizer Inc., priority 2024, published 2025)

Tests used:
CCR6 = target: T1, CCR6 (Homo sapiens, UniProt P51684); assay: CCR6+ T cell chemotaxis assay; assay type: cell-based
T1 construct: Human CD4+CCR6+CXCR3-T cells were isolated from leukopak from healthy donors; endogenous in cells
T1 sequence (P51684 1-374): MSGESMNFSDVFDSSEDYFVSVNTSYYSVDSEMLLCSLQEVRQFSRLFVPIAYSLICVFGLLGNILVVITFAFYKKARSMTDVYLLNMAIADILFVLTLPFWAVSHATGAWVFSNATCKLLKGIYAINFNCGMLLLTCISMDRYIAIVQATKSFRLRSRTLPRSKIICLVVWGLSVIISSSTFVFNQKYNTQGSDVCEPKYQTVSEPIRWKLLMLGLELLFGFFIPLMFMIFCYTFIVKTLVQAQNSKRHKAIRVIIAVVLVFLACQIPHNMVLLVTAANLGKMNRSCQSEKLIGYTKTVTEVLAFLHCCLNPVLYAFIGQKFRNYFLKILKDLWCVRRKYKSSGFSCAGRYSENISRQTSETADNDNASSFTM
From the text: Human CD4+CCR6+CXCR3-T cells were isolated from leukopak from healthy donors using EasySep™ Human Th17 Cell Enrichment Kit. […] Day 4 post activation, Dynabeads were removed from the culture. The activated T cells were maintained at 1-2×10^6 cells/mL for 15 days by feeding fresh growth media when needed.
For IC50 determination, the top and bottom of the chemotaxis chamber contained the same concentration of compound. DMSO was kept constant at 0.1% (v/v) in all wells. The final concentration of CCL20 (Peprotech 300-29A) in the bottom chamber is 0.5 nM. The fully assembled chemotaxis plate was placed in a cell culture incubator at 37° C., 5% CO2 for 1 h. After incubation, the top filter was removed, followed by a quick freeze of the bottom chamber at −80° C. for 1 h. The migrated cells in the bottom chamber were stained with CyQUANT dye (Life Technologies, C7026) for cell number determination.
IC50 values for compounds of the present invention (Table 1a) were determined by the non-linear regression analysis of dose response curves.

CXCR2 = target: T2, CXCR2 (Homo sapiens, UniProt P25025); assay: Human neutrophil chemotaxis assay; assay type: cell-based; details: R = H; read-out: CXCR2 Neutrophil, GRO[…] Chemotaxis IC50
T2 construct: Human neutrophils were purified from freshly drawn human whole blood; endogenous in cells; host or cells: primary human neutrophils from freshly drawn whole blood
T2 sequence (P25025 1-360): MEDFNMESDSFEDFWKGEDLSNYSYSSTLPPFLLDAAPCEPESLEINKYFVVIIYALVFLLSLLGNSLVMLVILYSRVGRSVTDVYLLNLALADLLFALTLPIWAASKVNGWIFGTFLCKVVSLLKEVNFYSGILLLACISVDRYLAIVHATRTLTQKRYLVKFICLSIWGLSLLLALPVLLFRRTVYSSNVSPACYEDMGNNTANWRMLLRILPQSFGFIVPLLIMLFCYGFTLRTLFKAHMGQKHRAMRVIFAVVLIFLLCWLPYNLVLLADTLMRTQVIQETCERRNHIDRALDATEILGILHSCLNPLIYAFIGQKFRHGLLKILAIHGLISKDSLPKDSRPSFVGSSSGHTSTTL
Experimental: After 30 min, the labeled neutrophils were washed twice in chemotaxis buffer, resuspended as before and used immediately. For the assay, test compounds were tested in a dose-response format to determine IC50. Labeled neutrophils (50 μL) were pre-incubated with diluted test compound (50 μL) for 30 min in a 96-well plate (Greiner). Next, 100 μL of diluted compound was mixed with 100 μL of GROα (Peprotech #300-11, 2 nM) in the bottom portion of the chemotaxis chamber.
The top portion (insert) of the chemotaxis system containing the FluoroBlok porous membrane was then assembled together. 50 μL of the pre-incubated neutrophils were added to the FluoroBlok insert (top portion) and chemotaxis measured by the neutrophils ability to migrate through the membrane towards the specific CXCR2 ligand, GROα.

Cc1cn(C)nc1[C@H](Nc1c(Nc2ccnc(C(=O)N(C)C)c2O)c(=O)c1=O)C1(C)CC1 [Example 20, (R)-4-((2-(((1,4-Dimethyl-1H-pyrazol-3-yl)(1-methylcyclopropyl)methyl)amino)-3,4-dioxocyclobut-1-en-1-yl)amino)-3-hydroxy-N,N-dimethylpicolinamide]
T Cell Chemotaxis Selectivity (CCR6; T cell chemotaxis compared to neutrophil chemotaxis): NS** (Not selective for T cell chemotaxis compared to neutrophil chemotaxis)

CN(C)C(=O)c1nccc(Nc2c(N[C@@H](c3ccn(C)n3)C3(C)CCCC3)c(=O)c2=O)c1O [drawing 157 (R = H)]
IC50 (CXCR2): 42.1 nM | IC50 (CCR6; R = H, read-out: CCR6 T cell, CCL20 Chemotaxis IC50): 19.2 nM

Cc1nc([C@H](Nc2c(Nc3ccnc(C(=O)N(C)C)c3O)c(=O)c2=O)C2(C)CCCC2)co1 [drawing 159 (R = H)]
T Cell Chemotaxis Selectivity (CCR6; R = H): NS* (Not selective for T cell chemotaxis compared to neutrophil chemotaxis)
